Source: patent US10264976B2, “Biocompatible flavonoid compounds for organelle and cell imaging” (The University of Akron, priority 2015, dated 2019)

Experiments:
[1] = tested on: mitochondria in CCCP-treated hMSCs; assay: Effects of CCCP on uptake of dyes; type: cell-based, human; conditions: for specificity to mitochondria after CCCP treatment / uptake / imaging signal (sensitivity) after CCCP treatment: hMSCs pre-treated with 10 μM CCCP for 30 min, 5 μM dye, 25 nM MT, 25 min
From the text: Mitochondria can continuously oxidize substrates and maintain a proton gradient across the lipid bilayer with very large membrane potential (−180 mV). The membrane potential as the major driving force enables the entrance and accumulation of the cationic species into mitochondria rather than cell plasma. CCCP is an uncoupler that causes rapid acidification of mitochondria and dysfunction of ATP synthase resulting in the decrease of mitochondrial membranes potential. To confirm the tolerances of MC-Mito1 and MC-Mito2, carbonyl cyanide m-chlorophenylhydrazone (CCCP) was used to treat the cells prior to the staining procedure.
It was expected because CCCP-induced decrease of membranes potential will severely affect the direction and accumulation of cationic mitochondrial probes. The most of commercial mitochondrial probes are suffered by the similar limitation. […] Compared with MC-Mito1, MC-Mito2 has longer hydrophobic linker between the flavone dye and the cation. Since mitochondrial membrane is composed of phospholipid bilayers and proteins, the stronger lipophilicity has been supposed to play an important role in retaining the specificity of MC-Mito2 in CCCP-treated cells.
The hMSCs were treated with 10 μM carbonyl cyanide m-chlorophenylhydrazone (CCCP) for 30 min. and then were washed with fresh medium. After that, the cells were incubated with 5 μM MC-Mito1 and 25 nM MT, 5 μM MC-Mito2 and 25 nM MT for 25 min at 37° C., respectively. After staining, the cells were imaged by microscope without PBS solution washing procedure.

[2] = tested on: mitochondria in hMSCs; assay: Co-staining with Mitotracker red CMXRos (subcellular distribution); type: cell-based, human; conditions: 5 μM dye and 25 nM MT, 25 min
Protocol: To determine the subcellular distribution of the probes in living cells, the MT were co-incubated with MC-Mito1 and MC-Mito2, respectively. […] Despite that the decrease of membranes potential will severely affect the direction and accumulation of cationic mitochondrial probes.
Human mesenchymal stem cells (hMSCs) (Lonza, Walkersville, Md.) were cultured in serum-containing MSCBM medium (Lonza) supplemented with MSCGM SingleQuots (Lonza) according to manufacturer's specifications. hMSCs (Passage 5) were seeded at a density of 5.0×10^4 cell/cm^2. For co-staining experiments, the hMSCs were seeded on 12-well plate, cultured in MSCBM medium (Lonza) supplemented with MSCGM SingleQuots (Lonza), and incubated with 5 μM MC and 25 nM Mitotracker® red CMXRos (MT), 5 μM MC-Br and 25 nM MT, 5 μM MC-Mito1 and 25 nM MT, 5 μM MC-Mito2 and 25 nM MT for 25 min at 37° C., respectively. Each well contains 1 ml of medium and 0.05 ml DMSO (dissolving probe). The cell imaging was obtained on a Zeiss inverted fluorescence microscopy with X-Cite Series 120Q. The blue channel filter: excitation 365 nm, beam splitter FT 395 nm, emission 445/50 nm. The green channel filter: excitation 450-490 nm, beam splitter FT 510 nm, emission 515-565 nm. The red channel filter: excitation 587/25 nm, beam splitter FT 605 nm, emission 647/70 nm.

[3] = UV absorption and fluorescence spectra of the dyes; conditions: for Stokes shift: in DMSO; for absorption maxima / emission maxima: in DMSO solution
[4] = Fluorescence quantum yield (rhodamine 6G standard); type: physicochemical; conditions: rhodamine 6G in ethanol as reference; reported after BSA addition experiment
From the text: The fluorescence quantum yields were obtained using rhodamine 6G (sigma) as the standard (Φfl=0.95, ethanol). The fluorescence quantum yields can be calculated by using the following Eq: Φs=Φr×(Ar×ns^2×Fs)/(As×nr^2×Fr) where the subscripts s and r refer to the sample and the standard, respectively. Φ is the quantum yield, F is the integrated emission intensity, A is the absorbance, and n is the refractive index. Zebrafish Breeding and Imaging

[5] = target: bovine serum albumin (BSA) (Bos taurus, UniProt P02769); assay: Fluorescence response upon addition of bovine serum albumin; type: binding; conditions: 2 equivalents of BSA; 2 μM probe, 1 mM HEPES buffer (1% DMSO); at 495 nm (MC-Mito1) / 490 nm (MC-Mito2)
Protocol: FIG. 4B provides a graph showing the fluorescence intensity changes of MC-Mito1 in the presence of increasing concentrations of BSA in 1 mM HEPES buffer (1% DMSO). [MC-Mito1]=[MC-Mito2]=2 μM, [BSA]=0˜4 μM. λex=400 nm.
FIG. 11 is a chart showing fluorescence spectra of DMAF ([DMAF]=10 μM, 1 mM HEPES buffer containing 1% DMSO, pH=7.4) upon addition of different concentration of BSA ([BSA]=0-10 μM, 1 mM HEPES).
MC-Mito1 and MC-Mito2 were nearly non-fluorescent in water (QYs <1%), due to specific H-bonding interaction of water solvents with H-bond acceptor carbonyl groups in flavone skeleton. However, upon addition of bovine serum albumin (BSA) into probe water solution, the fluorescence intensity increased sharply (FIG. 4A-D). After addition of 2 equivalent of BSA, the fluorescence intensity of MC-Mito1 at 495 nm was enhanced by about 17-fold, which was accompanied with a large blue-shift (from 540 nm to 495 nm, FIGS. 4A and 4B). […] By using rhodamine 6G in ethanol (QY=95%) as a reference, the fluorescence quantum yield (QY) of MC-Mito1 and MC-Mito2 were determined to be 28% and 33%, respectively. […] The high signal-to-noise ratio (>10) enables the simple wash-free in vivo fluorescence imaging. […]

[6] = tested on: hMSCs; assay: Cytotoxicity determined by MTT method; type: cell-based, human; conditions: for cell viability: hMSCs, 0, 2, 5, 10 μM, 24 h
Protocol: Before the application for cell imaging, the cytotoxicity of MC-Mito1 and MC-Mito2 were evaluated by the widely used MTT assay to evaluate the tolerance of sensors to their working concentrations. The samples were incubated with 0, 2, 5, 10 μM MC-Mito1, MC-Mito2 and Mitotracker® red CMXRos (MT) for 24 h, respectively (FIG. 5). […] In contrast, only less than 10% of the cells were viable after incubation with 5 μM of commercial mitochondrial dye MT for 24 hours. […] The hMSCs were seeded in 12-well plates at a density of 5.0×10^4 cell/cm^2. After 24 h incubation, the cells were exposed to a series of doses of probe MC-Mito1 or MC-Mito2, and MT at 37° C. The concentration of MT (0, 2, 5, 10 μM) was similar as reported in literature.^28 After 24 hours, MTT solution (sigma) was added and kept 3 h in the incubator. MTT solubilization solution was then added into each well and the plate was gently shaken for 10 min at room temperature. The absorbance of MTT in the sample well was determined by subtracting the absorbance of the sample well from corresponding control well. Cell viability was expressed by the ratio of the absorbance of MTT in the sample wells to that of the cells incubated with culture medium only.

[7] = tested on: hMSCs; assay: Cell staining efficiency without washing process; type: cell-based, human
Protocol: To assess their cell staining efficiencies, the hMSCs cells were incubated with MT, MC-Mito1 and MC-Mito2, respectively. Cell staining was continuously recorded in 3 min, 10 min and 25 min without washing process. It was found MC-Mito1 and MC-Mito2 quickly stained the living cells in 10 mins. In contrast, the MT acquired longer time to efficiently stain cells. The fluorescence signal of MC-Mito1 and MC-Mito2 from the ‘blue channel’ on fluorescence microscope (420-470 nm) were confined in cells with a negligible background signal from the culture medium, supporting the hypothesis that the flavone dyes gave higher emission in low-polar environment. Generally, the S/N ratios in fluorescent images were above 3, which could be considered acceptable for the discrimination of mitochondria. Therefore, this wash-free method could be a useful probe for real-time monitor of mitochondrial changes.
Human mesenchymal stem cells (hMSCs) (Lonza, Walkersville, Md.) were cultured in serum-containing MSCBM medium (Lonza) supplemented with MSCGM SingleQuots (Lonza) according to manufacturer's specifications. hMSCs (Passage 5) were seeded at a density of 5.0×10^4 cell/cm^2. […] The cell imaging was obtained on a Zeiss inverted fluorescence microscopy with X-Cite Series 120Q. […]

Sequence of bovine serum albumin (BSA) (P02769 25-607): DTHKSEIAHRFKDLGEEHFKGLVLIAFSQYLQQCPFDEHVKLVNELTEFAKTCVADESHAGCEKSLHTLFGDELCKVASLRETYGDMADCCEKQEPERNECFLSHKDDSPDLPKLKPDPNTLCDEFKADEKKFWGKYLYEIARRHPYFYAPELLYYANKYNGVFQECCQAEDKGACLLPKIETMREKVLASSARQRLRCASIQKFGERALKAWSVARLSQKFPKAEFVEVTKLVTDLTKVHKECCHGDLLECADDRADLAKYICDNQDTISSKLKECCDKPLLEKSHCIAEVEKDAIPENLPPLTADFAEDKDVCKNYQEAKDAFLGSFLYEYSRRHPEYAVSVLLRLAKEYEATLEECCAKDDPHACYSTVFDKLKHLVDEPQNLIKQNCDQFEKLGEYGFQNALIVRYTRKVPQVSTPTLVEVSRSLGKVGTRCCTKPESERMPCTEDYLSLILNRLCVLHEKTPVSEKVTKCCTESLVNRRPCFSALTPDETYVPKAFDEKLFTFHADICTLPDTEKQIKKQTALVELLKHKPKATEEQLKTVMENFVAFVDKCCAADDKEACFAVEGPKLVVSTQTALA

| Structure (SMILES) | co-localization with MT (mitochondria) [2] | specificity to mitochondria after CCCP treatment [1] | uptake / imaging signal (sensitivity) after CCCP treatment [1] | Stokes shift [3] [nm] | absorption maxima [3] [nm] | emission maxima [3] [nm] | fluorescence quantum yield (QY) [4] [%] | fluorescence intensity enhancement [5] | cell viability [6] [%] | also measured |
| --- | --- | --- | --- | --- | --- | --- | --- | --- | --- | --- |
| N#CC(C#N)=NNc1cccc(Cl)c1 [CCCP, carbonyl cyanide m-chlorophenylhydrazone, reference compound] | – | – | – | – | – | – | – | – | – | mitochondrial morphology ([1]; hMSCs, 10 μM CCCP for 30 min): mostly transformed to small and dispersed fragments |
| O=c1c(O)c(-c2ccc(N3CCOCC3)cc2)oc2ccccc12 [MC, 3-hydroxy-2-(4-morpholinophenyl)-4H-chromen-4-one] | almost no co-localization with MT | – | – | – | – | – | – | – | – | – |
| O=c1c(OCCCCCCBr)c(-c2ccc(N3CCOCC3)cc2)oc2ccccc12 [MC-Br, 3-(6-bromohexyloxy)-2-(4-morpholinophenyl)-4H-chromen-4-one] | almost no co-localization with MT | – | – | – | – | – | – | – | – | – |
| O=c1c(OCCC[P+](c2ccccc2)(c2ccccc2)c2ccccc2)c(-c2ccc(N3CCOCC3)cc2)oc2ccccc12.[Br-] [MC-Mito1, (3-(2-(4-morpholinophenyl)-4-oxo-4H-chromen-3-yloxy)propyl)triphenylphosphonium bromide] | matched those stained with MT (red channel) very well | almost no more specificity to mitochondria | extremely weaker imaging signal than that in normal cells | ~127 | 373 | 500 | 28 | about 17 fold | ~100 | – |
| O=c1c(OCCCCCC[P+](c2ccccc2)(c2ccccc2)c2ccccc2)c(-c2ccc(N3CCOCC3)cc2)oc2ccccc12.[Br-] [MC-Mito2, (6-(2-(4-morpholinophenyl)-4-oxo-4H-chromen-3-yloxy)hexyl)triphenylphosphonium bromide] | matched well with MT | perfectly retained | perfectly retained | ~127 | 373 | 500 | 33 | about 55 fold | ~100 | – |
| ClCc1ccc(C2=c3cc4c5c(c3Oc3c2cc2c6c3CCCN6CCC2)CCC[N+]=5CCC4)cc1.[Cl-] [MT, reference compound] | – | specificity became worse | decreased by more than half | – | – | – | – | – | – | time to stain living cells [7]: longer time; viable cells ([6]; hMSCs, 5 μM, 24 hours): less than 10% |
